Where “and” joins values, the source holds several entries; their conditions need not be identical. Equal values may be shown once. ± gives the expanded uncertainty stated by the source.
What was measured:
[1] = Liquid, Other PVT measurement
[2] = xn = mol fraction of the nth substance listed; settings: Liquid, Other PVT measurement, x2 = 0

CCCCn1cc[n+](C)c1.F[B-](F)(F)F [1-butyl-3-methylimidazolium tetrafluoroborate]
mass density, [1]
Settings	100 kPa	200 kPa	600 kPa	1000 kPa	1400 kPa	1800 kPa	2000 kPa
293.15 K	1198 ± 12 kg/m3	–	–	–	–	–	–
313.15 K	1183 ± 12 kg/m3	1185 ± 12 kg/m3	1186 ± 12 kg/m3	1186 ± 12 kg/m3	1186 ± 12 kg/m3	1187 ± 12 kg/m3	1186.93 ± 12 kg/m3 and 1187 ± 12 kg/m3
353.15 K	–	1159 ± 12 kg/m3	1160 ± 12 kg/m3	1160 ± 12 kg/m3	1160 ± 12 kg/m3	1161 ± 12 kg/m3	1160.82 ± 12 kg/m3 and 1161 ± 12 kg/m3
393.15 K	–	–	1135 ± 11 kg/m3	1135 ± 11 kg/m3	1135 ± 11 kg/m3	1136 ± 11 kg/m3	1135.92 ± 11 kg/m3 and 1136 ± 11 kg/m3
433.15 K	–	–	–	1112 ± 11 kg/m3	1112 ± 11 kg/m3	1113 ± 11 kg/m3	1113 ± 11 kg/m3
473.15 K	–	–	–	–	–	1086 ± 11 kg/m3	1087 ± 11 kg/m3

CC#N [acetonitrile]
mass density [kg/m3], [1]
Settings	200 kPa	600 kPa	1000 kPa	1400 kPa	1800 kPa	2000 kPa
313.15 K	755 ± 8	755 ± 8	756 ± 8	756 ± 8	757 ± 8	757 ± 8
353.15 K	710 ± 7	711 ± 7	711 ± 7	711 ± 7	712 ± 7	713 ± 7
393.15 K	–	664 ± 7	664 ± 7	665 ± 7	666 ± 7	666 ± 7
433.15 K	–	–	611 ± 6	612 ± 6	614 ± 6	614 ± 6
473.15 K	–	–	–	–	550 ± 6	552 ± 6

CCO [ethanol] + CCCCn1cc[n+](C)c1.F[B-](F)(F)F
mass density [kg/m3], [2]
Settings	200 kPa	600 kPa	1000 kPa	1400 kPa	1800 kPa	2000 kPa
313.15 K	770 ± 8	770 ± 8	770 ± 8	771 ± 8	771 ± 8	772 ± 8
353.15 K	734 ± 7	734 ± 7	735 ± 7	735 ± 7	736 ± 7	738 ± 7
393.15 K	–	691 ± 7	692 ± 7	693 ± 7	694 ± 7	694 ± 7
433.15 K	–	–	–	638 ± 6	639 ± 6	639 ± 6

CC#N [acetonitrile] + CCCCn1cc[n+](C)c1.F[B-](F)(F)F
mass density [kg/m3], [2]
Settings	200 kPa	600 kPa	1000 kPa	1400 kPa	1800 kPa	2000 kPa
313.15 K	755 ± 8	755 ± 8	756 ± 8	756 ± 8	757 ± 8	757 ± 8
353.15 K	710 ± 7	711 ± 7	711 ± 7	711 ± 7	712 ± 7	713 ± 7
393.15 K	–	664 ± 7	664 ± 7	665 ± 7	666 ± 7	666 ± 7
433.15 K	–	–	611 ± 6	612 ± 6	614 ± 6	614 ± 6
473.15 K	–	–	–	–	550 ± 6	552 ± 6

O [water]
[1]
Settings	mass density [kg/m3]
313.15 K, 200 kPa	993 ± 10
313.15 K, 2000 kPa	995 ± 10
353.15 K, 200 kPa	975 ± 10
353.15 K, 400 kPa	975 ± 10
373.15 K, 800 kPa	963 ± 10
373.15 K, 1200 kPa	963 ± 10
393.15 K, 200 kPa	949 ± 10
393.15 K, 400 kPa	949 ± 10
393.15 K, 1600 kPa	950 ± 10
393.15 K, 2000 kPa	950 ± 10
433.15 K, 800 kPa	912 ± 9
433.15 K, 1200 kPa	912 ± 9
473.15 K, 1600 kPa	871 ± 9
473.15 K, 2000 kPa	871 ± 9

CCO [ethanol]
mass density [kg/m3], [1]
Settings	200 kPa	600 kPa	1000 kPa	1400 kPa	1800 kPa	2000 kPa
313.15 K	770 ± 8	770 ± 8	770 ± 8	771 ± 8	771 ± 8	772 ± 8
353.15 K	734 ± 7	734 ± 7	735 ± 7	735 ± 7	736 ± 7	738 ± 7
393.15 K	–	691 ± 7	692 ± 7	693 ± 7	694 ± 7	694 ± 7
433.15 K	–	–	–	638 ± 6	639 ± 6	639 ± 6

From the NIST ThermoML archive (doi:10.1021/je900048r)
